For this series, the system named is PP5 mRNA. The series can be described thus: Northern blot analysis of PP5 mRNA expression in A549 cells. The settings on record: doses of 25 to 500 nM, read-out: IC50 for reduction of PP5 mRNA levels. The format is cell-based, human. The text has this:
The oligonucleotides shown in Table 1 were designed using the Genbank sequences HSSERTHRP (Genbank accession number X92121), HSRNAPPP5 (Genbank accession number X89416) and PPP5C (Genbank accession number U25174), synthesized and tested for inhibition of PP5 mRNA expression in A549 cells using a Northern blot assay. All oligonucleotides shown in Table 1 are chimeric oligonucleotides with central 2'-deoxy "gaps," which have phosphorothioate backbones, flanked on both sides by 2'-methoxyethoxy (2'-MOE) "wings" (shown in bold), which have phosphodiester backbones. All cytosines in the 2'-MOE wings are 5-methylcytosines.
In the initial screen, A549 cells were treated with oligonucleotides at a concentration of 300 nM oligonucleotide for four hours in the presence of […] lipofectin. Results were normalized and expressed as a percent of control. The effect of each oligonucleotide on levels of PP5 mRNA, expressed as approximate percent inhibition compared to control, is shown in Table 1. In this initial screen, oligonucleotides giving a reduction of PP5 mRNA of approximately 50% or greater were considered active. […] These sequences (SEQ ID NO: 1, 2, 3, 4, 6, 7 and 12, respectively, SEQ ID Nos shown in bold in Table 1) are therefore preferred.
These oligonucleotides were tested for their ability to reduce PP5 mRNA levels in A549 cells, using oligonucleotide doses of 25 to 500 nM.
The human lung tumor cell line A549 was obtained from the American Type Culture Collection (Rockville Md.) and were grown in DMEM (Gibco BRL, Gaithersburg Md.), supplemented with 10% fetal calf. Cells were seeded on 60 mm plates. When they reached 70% confluency, they were washed with DMEM and 1 ml of DMEM containing 15 μg/ml DOTMA/DOPE (Lipofectin®, GIBCO-BRL) and oligonucleotide at desired concentration was added. Duplicate dishes were used for each treatment condition. After 4 hours of treatment at 37°, cells were washed and cultured in fresh DMEM containing 10% fetal bovine serum for an additional 17 hours. Cells were then harvested and total RNA was extracted with TRIzol Reagent (GIBCO-BRL) according to manufacturer's protocol. Total RNA (20 μg) was fractionated on a 1% agarose gel containing formaldehyde, and transferred to a DURLON-UV (Stratagene) nylon membrane. Following UV crosslinking, the filters were hybridized with the appropriate protein phosphatase probe. The ^32 P-labeled human PP cDNA probes are generated with DECAPrime® DNA Labeling Kit (Ambion) according to the manufacturer's protocol. Hybridization was performed in a hybridization solution containing 50% formamide at 42° for 16 hours. This was followed by two low stringency washes (2×SSC) at room temperature and two high stringency washes (0.1×SSC/0.5% SDS) at 55° C. Hybridization signals were visualized by autoradiography, and filters were then stripped and reprobed with a ^32 P-labeled glyceraldehyde-3-phosphate dehydrogenase (GAPDH) probe to confirm equal loading. The densities of hybridization signals were measured with the NIH Image program (ImagePC).
The cells were harvested, and total RNA was extracted with TRIzol® Reagent according to the methods of the manufacturer. Total RNA (20 μg) was fractionated on 1% agarose gels containing formaldehyde and transferred to DURLON-UV nylon membranes (Stratagene). Following UV cross-linking, the filters were hybridized with a [α^32 P]probe for human PP5. The human PP5 cDNA probe was generated from the full length coding region of PP5 and [α^32 P]-dATP was labeled with DECAprime® DNA Labeling Kit according to the manufacturer's protocol. Hybridization was performed in the presence of 50% formamide, 0.1 M Pipes, 0.8 M NaCl, 5×Denhardt's solution, 100 μg/ml denatured herring sperm DNA, 1×10^6 cpm/ml [α-^32 P]-labeled probe and 10% dextran sulfate at 42° C. for 16 hours. Following hybridization, the membrane was subjected to two low stringency washes (2×SSC) at room temperature and then two high stringency washes (0.1×SSC/0.5% SDS) at 55° C. […]

pIC50: −log10 of the molar value.

For the substance “ISIS 15534: chimeric PP5 antisense oligonucleotide, P=O wings, P=S deoxy gap; GGGCCCTATTGCTTGAGTGG, SEQ ID NO: 12 (sugars by position and backbone not given here; chimeric, phosphodiester wings, phosphorothioate deoxy gap)”, the pIC50 was approximately 6.87.

The values are drawn from patent US6235891A, “Glucocorticoid receptor agonist and decreased PP5” (South Alabama Medical Science Foundation, priority 1999, dated 2001).
